# Results: publication PMC10892041, “Vanadium Complexes with Thioanilide Derivatives of Amino Acids: Inhibition of Human Phosphatases and Specificity in Various Cell Models of Metabolic Disturbances” (Pharmaceuticals, 2024)
# What was measured:
# [1] = molecular target: T1, CDC25A (Homo sapiens, UniProt P30304); assay: Inhibition of human recombinant non-tyrosine phosphatase CDC25A (3-O-methylfluorescein phosphate); format: biochemical
# T1 construct: purchased Sigma-Aldrich
# T1 sequence (P30304 1-524): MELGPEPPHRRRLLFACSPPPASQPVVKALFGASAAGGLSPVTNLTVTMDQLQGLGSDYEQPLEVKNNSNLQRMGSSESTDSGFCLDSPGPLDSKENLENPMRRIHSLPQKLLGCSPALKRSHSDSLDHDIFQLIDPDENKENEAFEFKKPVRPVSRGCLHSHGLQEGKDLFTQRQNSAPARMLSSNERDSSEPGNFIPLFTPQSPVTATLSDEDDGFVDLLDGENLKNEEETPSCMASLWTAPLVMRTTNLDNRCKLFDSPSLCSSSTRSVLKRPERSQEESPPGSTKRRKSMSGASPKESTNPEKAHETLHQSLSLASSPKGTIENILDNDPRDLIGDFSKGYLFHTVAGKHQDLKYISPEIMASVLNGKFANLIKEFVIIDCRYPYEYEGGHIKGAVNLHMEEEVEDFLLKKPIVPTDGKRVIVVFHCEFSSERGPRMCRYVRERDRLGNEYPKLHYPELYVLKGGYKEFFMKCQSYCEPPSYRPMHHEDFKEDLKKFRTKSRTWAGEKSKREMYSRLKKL
# Outline: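 Compound pre-incubated 10 min with enzyme: PP2A at 0.5 U/mL in 50 mM Tris-HCl pH 7.0, 0.05% Tween-20, 125 µg/mL BSA with 0.1 mM DiFMUP; CDC25A at 400 ng/mL with 0.2 mM 3-O-methylfluorescein phosphate. Incubation 180 min at 23 °C; fluorescence (ex 355/em 560 nm) read, percent inhibition versus vehicle control, triplicate.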
# [2] = tested on: myocytes C2C12; assay: Scintillation proximity assay, transport of [14C]-deoxy-D-glucose into myocytes C2C12; format: cell-based, mouse; settings: 50 µM; control solvent only
# Experimental: The myocyte C2C12 cell line (ATCC CRL-1772), a subclone of myoblasts from mouse muscles, was cultured according to standard protocol in DMEM supplemented with 10% fetal calf serum, 100 IU/ml penicillin, and […] streptomycin at 37 °C in 5% CO2. Cells were pleated on a 96-well microplate and after reach confluence were differentiated in medium with 2% horse serum. Differentiation medium was changed every 72 h.
# Scintillation proximity assay (SPA) is a method to measure the real-time accumulation of radiolabeled substrates by adherent cells with no filtration needed. Radioactivity concentrated closer to the scintillator embedded in the plastic bottom of each well provides a stronger signal than the radiolabeled substrate in the culture medium. Uptake of radiolabeled 2-deoxy-D-[U-14C]-glucose was conducted based on previous descriptions.
# After 24 h incubation, the tested complexes were added. After 2 h incubation at 37 °C in 5% CO2, the medium was changed to low-glucose medium (1000 mg/L), and the tested complexes were added again, with further incubation for 4 h being conducted.
# For cells proceeded as above, 2-deoxy-D-[U-14C]-glucose (250–350 mCi/mmol, NEC720A, PerkinElmer) solution in KRB with a total activity of 0.03 mCi was added to each well. […] Non-specific radioactivity was subtracted from each result (cpm). Two independent experiments with triplicates were conducted.
# [3] = tested on: hepatocytes HepG2; assay: Lipid accumulation in the cell model of NAFLD (oleic acid, AdipoRed); format: cell-based, human; settings: 10 µM; 24 h
# Experimental: The human hepatocyte HepG2 cell line (ATCC HB-8065) was cultured according to standard protocol in DMEM supplemented with 10% fetal bovine serum, 100 IU/mL penicillin, and […] streptomycin at 37 °C in 5% CO2. Cells were pleated on a 96-well microplate and were used at 18–24 h after seeding.
# The induction of hepatic lipid accumulation and studies on the effect of vanadium complexes on this process were carried out based on previous descriptions. […] After 16–24 h, the standard medium was changed for DMEM with 0.1% BSA fatty acid free and 0.5 mM oleic acid as sodium salt and tested compounds were added. Cells were incubated for 24 h, and the intracellular lipid content was evaluated using AdipoRed Adipogenesis Assay Reagent (Lonza) according to the manufacturer’s protocol. Hepatocytes were washed with PBS with calcium and magnesium, and 5 µL AdipoRed Reagent in 200 µL PBS was added, with the mixture incubated for 10 min at 22 °C. Fluorescence signal proportional to lipid content in cells was measured at excitation in 530 nm and emission in 550 nm using a multimodal microplate reader POLARStar Omega (BMG Labtech). The results were normalized to the untreated control (cells with solvent only), wherein the intensity of fluorescence was taken as 100%.
Compound,"Inhibition of CDC25A, percentage inhibition of control ± SD ([1]; 1 µM) [%]","Inhibition of CDC25A, percentage inhibition of control ± SD ([1]; 10 µM) [%]","Transport of [14C]-deoxy-D-glucose into C2C12 myocytes, % of the control [2]","Lipid accumulation in hepatocytes after steatosis induction with oleic acid, % of control [3]"
"Cc1occc(=O)c1[O-].Cc1occc(=O)c1[O-].[O]=[V+2] [BMOV, bis(maltolato)oxidovanadium(IV), reference compound]",54 ± 1,61 ± 1,125 % of control,did not have any significant effect
"O=S(=O)([O-])[O-].[O]=[V+2] [VOSO4, reference compound]",54 ± 2,62 ± 1,110 % of control,did not have any significant effect
